Laboratory results reported in publication PMC8603191, “Fragment-based design of selective GPCR ligands guided by free energy simulations” (Chemical communications (Cambridge, England), 2021).
“And” between values parts separate entries of the source, which are not always exact repeats. Equal values may be shown once.

What was measured:
human A2AAR = target: T1, human A2AAR (Homo sapiens, UniProt P29274); experiment: Radioligand binding assay, displacement of [3H]ZM241385; settings: for Free energy of binding (ΔG) A2AAR: calculated from experimental binding affinities; for Ki: displacement of [3H]ZM241385, means ± SEM from 2-4 independent experiments; for ΔΔG Experimental A2AAR: reference compound 5, based on Table S3
T1 construct: expressed in transfected cells; host or cells: HEK293 (membrane preparations)
T1 sequence (P29274 whole entry): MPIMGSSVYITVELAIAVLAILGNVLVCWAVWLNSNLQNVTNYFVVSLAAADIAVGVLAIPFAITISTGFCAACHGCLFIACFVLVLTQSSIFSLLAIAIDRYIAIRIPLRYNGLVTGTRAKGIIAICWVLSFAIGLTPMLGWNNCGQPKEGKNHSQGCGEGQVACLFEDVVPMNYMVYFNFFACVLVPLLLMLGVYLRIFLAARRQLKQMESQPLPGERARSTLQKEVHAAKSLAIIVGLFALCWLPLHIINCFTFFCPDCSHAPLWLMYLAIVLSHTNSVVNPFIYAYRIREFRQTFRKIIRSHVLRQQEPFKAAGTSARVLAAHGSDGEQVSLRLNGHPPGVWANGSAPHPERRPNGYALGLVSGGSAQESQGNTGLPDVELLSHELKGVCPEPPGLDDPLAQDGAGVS
Protocol: (§1) Radioligand binding assays. HEK293 cells expressing the human A1- or A2AARs were cultured in DMEM supplemented with 10% fetal bovine serum, 100 Units/ml penicillin, 100 µg/ml streptomycin, and 2 µmol/ml glutamine. Cells were detached from plates by scraping into cold PBS and centrifuged at 250 g for 5 min. The pellets were resuspended in ice-cold Tris HCl buffer (50 mM, pH 7.4) and then homogenized. After homogenization and suspension, cells were centrifuged at 1000 g for 10 min, and the pellet was discarded.
(§2) The suspension was then re-centrifuged at 20,000 g for 60 min at 4 °C. The pellets were resuspended in buffer containing 3 Units/ml adenosine deaminase and incubated at 37°C for 30 min. The aliquots of membrane preparations were stored at −80°C until the binding experiments. For displacement binding assays, membrane preparations (20 µg proteins/tube) were incubated at 25°C for 60 min with a final concentration of [3H]DPCPX (0.5 nM) and [3H]ZM241385 (1.0 nM) for A1- and A2AARs, respectively, in a mixture containing 50 µL of increasing concentrations of a test ligand in a total assay volume of 200 µL of 50 mM Tris HCl, pH 7.4, containing 10 mM MgCl2. Nonspecific binding was determined using 100 µM of XAC. The reaction was terminated by filtration with GF/B filters using a Brandel 24-channel harvester. Filters were placed in scintillation vials containing 5 ml of Hydrofluor scintillation buffer and counted using a PerkinElmer Tricarb 2810TR liquid scintillation counter. […]
(§3) Table S1. Binding affinities of compounds 1-10 based on displacement of [3H]DPCPX and [3H]ZM241385 at the A1AR and A2AAR, respectively.
(§4) Compound Substituent A1AR A2AAR index […]
(§5) a Ki values are expressed as means ± SEM from (2-4) independent experiments. b Free energy of binding (ΔG) calculated from experimental binding affinities (kcal/mol) / Number of heavy atoms (HA). The ligand efficiency (LE) = −ΔG/HA. c Values from Matricon et al.8
(§6) Table S3. Binding affinities of compounds 11-26 based on displacement of [3H]DPCPX and […]
(§7) a K values are expressed as means ± SEM from (2-4) independent experiments.
(§8) Free energy of binding (ΔG) calculated from experimental binding affinities (kcal/mol) / Number of heavy

human A1AR [1] = experiment: Radioligand binding assay, displacement of [3H]DPCPX; settings: A1AR versus A2AAR; for A1AR selectivity index: from Ki values; for selectivity for the A1AR: Fig. 1
Protocol: as §1, §2, §3, §4, §5, §6, §7, §8

human A1AR [2] = target: T2, human A1AR (Homo sapiens, UniProt P30542); experiment: as above; settings: for ligand efficiency (LE, binding free energy per heavy atom): A1AR; for Free energy of binding (ΔG) A1AR: calculated from experimental binding affinities
T2 construct: expressed in transfected cells; host or cells: HEK293 (membrane preparations)
T2 sequence (P30542 1-326): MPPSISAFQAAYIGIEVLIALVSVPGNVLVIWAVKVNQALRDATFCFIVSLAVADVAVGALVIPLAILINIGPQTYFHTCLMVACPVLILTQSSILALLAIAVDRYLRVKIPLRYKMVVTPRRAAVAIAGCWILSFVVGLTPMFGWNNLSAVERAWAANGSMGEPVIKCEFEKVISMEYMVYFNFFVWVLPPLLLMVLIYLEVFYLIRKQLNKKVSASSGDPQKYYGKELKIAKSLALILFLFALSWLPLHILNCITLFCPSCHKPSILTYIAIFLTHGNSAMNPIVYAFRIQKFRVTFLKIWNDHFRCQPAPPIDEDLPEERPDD
Protocol: as §1, §2, §3, §4, §5, §6, §7, §8

[3] = compound 1 as reference, based on Table S1
[4] = displacement of [3H]DPCPX, means ± SEM from 2-4 independent experiments
[5] = radioligand binding, Fig. 1, Table S5
[6] = reference compound 5, based on Table S3

| Structure (SMILES) | Free energy of binding (ΔG) A2AAR (human A2AAR) | A1AR selectivity index (human A1AR [1]) | selectivity for the A1AR (human A1AR [1]) | ligand efficiency (LE, binding free energy per heavy atom) (human A1AR [2]) | Free energy of binding (ΔG) A1AR (human A1AR [2]) | Ki (human A2AAR) | ΔΔG Experimental A1AR (human A1AR [2]; [3]) | Ki (human A1AR [2]; [4]) | improvement of A1AR affinity (human A1AR [2]; compared to compound 1) | Ki (human A1AR [2]; [5]) | A2AAR selectivity (human A2AAR; A2AAR versus A1AR) | ΔΔG Experimental A2AAR (human A2AAR) | ΔΔG Experimental A1AR (human A1AR [2]; [6]) |
| --- | --- | --- | --- | --- | --- | --- | --- | --- | --- | --- | --- | --- | --- |
| CC(=O)Nc1nc2ccccc2s1 [Compound 1] | -23.4 kJ/mol | 7.1 | 7 fold | 0.52 kcal mol^−1 HA^−1 | -28.5 kJ/mol | – | – | – | – | – | – | – | – |
| CCC(=O)Nc1nc2ccccc2s1 [Compound 2] | -29.7 kJ/mol | 1.8 | – | – | -31.4 kJ/mol | 6.19 ± 3.43 µM | –0.7 ± 0.3 kcal/mol | 3.46 µM and 3.5 µM | – | – | – | – | – |
| CC(C)C(=O)Nc1nc2ccccc2s1 [Compound 3] | -32.2 kJ/mol | 1.6 | – | – | -33.5 kJ/mol | 2.26 ± 0.36 µM | –1.2 ± 0.3 kcal/mol | 1.42 µM and 1.4 µM | – | – | – | – | – |
| O=C(Nc1nc2ccccc2s1)C1CC1 [Compound 4] | -31.4 kJ/mol | 1.4 | – | – | -32.2 kJ/mol | 3.27 ± 1.14 µM | –0.9 ± 0.2 kcal/mol | 2.35 µM and 2.4 µM | – | – | – | – | – |
| CC(C)(C)C(=O)Nc1nc2ccccc2s1 [Compound 5] | -33.5 kJ/mol | 5.0 | not more selective for the A1AR compared to 1 | 0.56 kcal mol^−1 HA^−1 | -37.7 kJ/mol | 1.43 ± 0.23 µM | –2.2 ± 0.2 kcal/mol | – | 39 fold | 0.285 µM | – | – | – |
| CCC(CC)C(=O)Nc1nc2ccccc2s1 [Compound 6] | -31.8 kJ/mol | 2.8 | – | – | -34.3 kJ/mol | 2.92 ± 0.72 µM | –1.4 ± 0.1 kcal/mol | 1.04 µM and 1 µM | – | – | – | – | – |
| O=C(Nc1nc2ccccc2s1)C1CCCCC1 [Compound 7] | -31.4 kJ/mol | 3.2 | – | – | -34.3 kJ/mol | 3.41 ± 0.95 µM | –1.4 ± 0.2 kcal/mol | 1.08 µM and 1.1 µM | – | – | – | – | – |
| O=C(Nc1nc2ccccc2s1)C12CC3CC(CC1C3)C2 [Compound 8] | -32.6 kJ/mol | 4.0 | – | – | -36.4 kJ/mol | 1.94 ± 0.22 µM | –1.9 ± 0.3 kcal/mol | 0.484 ± 0.173 µM | – | – | – | – | – |
| O=C(Nc1nc2ccccc2s1)C1CCCC1 [Compound 9] | -33.1 kJ/mol | 2.6 | – | 0.50 kcal mol^−1 HA^−1 | -35.6 kJ/mol | 1.61 ± 0.11 µM | –1.7 ± 0.2 kcal/mol | – | – | 0.619 µM | – | – | – |
| O=C(Nc1nc2ccccc2s1)c1ccccc1 [Compound 10] | -36.8 kJ/mol | 0.6 | – | – | -35.6 kJ/mol | 0.386 ± 0.043 µM | –1.7 ± 0.1 kcal/mol | 0.67 ± 0.08 µM | – | – | 2 fold | – | – |
| Cc1ccc2nc(NC(=O)C(C)(C)C)sc2c1 [Compound 11] | -26.4 kJ/mol | < 0.3 | – | – | > -23 kJ/mol | 25.8 ± 13.2 µM | – | > 100 µM | – | – | – | 7.11 ± 2.5 kJ/mol | > 14.6 kJ/mol |
| Cc1cccc2sc(NC(=O)C(C)(C)C)nc12 [Compound 12] | -29.7 kJ/mol | 6.5 | – | – | -34.3 kJ/mol | 6.75 ± 0.92 µM | – | 1.04 µM and 1 µM | – | – | – | 3.8 ± 0.42 kJ/mol | 3.3 ± 0.42 kJ/mol |
| Cc1ccc2sc(NC(=O)C(C)(C)C)nc2c1 [Compound 13] | -33.5 kJ/mol | 19.1 | – | – | -41 kJ/mol | 1.45 ± 0.6 µM | – | 0.076 ± 0.017 µM | – | – | – | 0 ± 2.1 kJ/mol | –0.8 ± 0.2 kcal/mol |
| CC(C)(C)C(=O)Nc1nc2cc(Cl)ccc2s1 [Compound 14] | -33.9 kJ/mol | 11.0 | – | – | -39.7 kJ/mol | 1.29 ± 0.28 µM | – | 0.117 ± 0.011 µM | – | – | – | –0.1 ± 0.2 kcal/mol | –0.5 ± 0.1 kcal/mol |
| CC(C)(C)C(=O)Nc1nc2cc(Br)ccc2s1 [Compound 15] | -35.1 kJ/mol | 18.7 | 19 fold | 0.60 kcal mol^−1 HA^−1 | -42.7 kJ/mol | 0.746 ± 0.149 µM | – | – | – | 0.04 µM | – | –0.4 ± 0.2 kcal/mol | –1.2 ± 0.2 kcal/mol |
| CCc1ccc2sc(NC(=O)C(C)(C)C)nc2c1 [Compound 16] | -31.4 kJ/mol | 23.6 | – | – | -39.3 kJ/mol | 3.38 ± 0.53 µM | – | 0.143 ± 0.02 µM | – | – | – | 2.1 ± 1.7 kJ/mol | –0.4 ± 0.1 kcal/mol |
| CC(C)(C)C(=O)Nc1nc2cc(C#N)ccc2s1 [Compound 17] | -30.1 kJ/mol | 25.2 | – | – | -38.1 kJ/mol | 5.63 ± 0.74 µM | – | 0.223 ± 0.022 µM | – | – | – | 3.3 ± 0.42 kJ/mol | –0.2 ± 0.1 kcal/mol |
| COc1ccc2sc(NC(=O)C(C)(C)C)nc2c1 [Compound 18] | -33.5 kJ/mol | 10.5 | – | – | -39.3 kJ/mol | 1.6 ± 0.51 µM | – | 0.152 ± 0.057 µM | – | – | – | 0.42 ± 2.1 kJ/mol | –0.4 ± 0.3 kcal/mol |
